# Measured values published in patent publication US20250382305A1 (PTC THERAPEUTICS, INC., priority 2022, published 2025).
# How the values were obtained:
# [1] = tested on: Total ATXN3 (tATXN3) protein; experiment: Endogenous Total ATXN3 (tATXN3) Protein Assay (MSD immunoassay of cell lysates); format: cell-based; details: average IC50, total ATXN3 protein in cell lysate after 48 h with compound (Table 1)
# Outline: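 Cells in DMEM/10% FBS were plated at 10,000 per well onto 7-point, 3.16-fold compound dilutions in duplicate for 48 h at 37° C, then lysed. Total ATXN3 in lysates was measured by MSD sandwich immunoassay: mouse anti-ATXN3 capture, rabbit anti-ATXN3 detection, SULFO-TAG anti-rabbit. Average IC50 was reported in star bins.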
# ATXN3 pre-mRNA = experiment: RT-qPCR Assay to Quantify Exon 4 Skipping in ATXN3 pre-mRNA in Cells; format: cell-based; details: percent exon 4 skipping in ATXN3 pre-mRNA, RT-qPCR of cell lysates; average IC50
# Outline: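 Cells plated at 10,000/well onto a 7-point, 3.16-fold DMSO dilution series (duplicates), incubated 24 h at 37 °C, then lysed. Exon 4 skipping measured by one-step RT-qPCR (48 °C RT, 40 cycles); IC50 interpolated from dose-response fit of percent skipping.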
SMILES,IC50 [1],IC50 (ATXN3 pre-mRNA)
"N[C@H]1CCCO[C@@H]1c1sc2c(NCc3cccs3)cc(Cl)nc2c1Br [Compound 56, 2-((2S,3S)-3-aminotetrahydro-2H-pyran-2-yl)-3-bromo-5-chloro-N-(thiophen-2-ylmethyl)thieno[3,2-b]pyridin-7-amine]",300 to 1000 nM,30 to 300 nM
"N[C@H]1CCCC[C@@H]1c1sc2c(NCc3cccs3)cc(Cl)nc2c1I [Compound 57, 2-((1S,2S)-2-aminocyclohexyl)-5-chloro-3-iodo-N-(thiophen-2-ylmethyl)thieno[3,2-b]pyridin-7-amine]",≤ 30 nM,≤ 30 nM
"N[C@@H]1CCCC[C@H]1c1sc2c(NCc3cccs3)cc(Cl)nc2c1I [Compound 58, 2-((1R,2R)-2-aminocyclohexyl)-5-chloro-3-iodo-N-(thiophen-2-ylmethyl)thieno[3,2-b]pyridin-7-amine]",> 1000 nM,> 1000 nM
"Cc1c([C@@H]2CCCC[C@H]2N)sc2c(NCc3ccco3)nc(Cl)nc12 [Compound 59, 6-((1R,2R)-2-aminocyclohexyl)-2-chloro-N-(furan-2-ylmethyl)-7-methylthieno[3,2-d]pyrimidin-4-amine]",> 1000 nM,300 to 1000 nM
"Cc1c([C@H]2CCCC[C@@H]2N)sc2c(NCc3ccco3)nc(Cl)nc12 [Compound 60, 6-((1S,2S)-2-aminocyclohexyl)-2-chloro-N-(furan-2-ylmethyl)-7-methylthieno[3,2-d]pyrimidin-4-amine]",≤ 30 nM,≤ 30 nM
"Cc1c([C@@H]2OCCC[C@H]2N)sc2c(NCc3ccco3)nc(Cl)nc12 [Compound 61, 6-((2R,3R)-3-aminotetrahydro-2H-pyran-2-yl)-2-chloro-N-(furan-2-ylmethyl)-7-methylthieno[3,2-d]pyrimidin-4-amine]",> 1000 nM,> 1000 nM
"Cc1c([C@H]2OCCC[C@@H]2N)sc2c(NCc3ccco3)nc(Cl)nc12 [Compound 62, 6-((2S,3S)-3-aminotetrahydro-2H-pyran-2-yl)-2-chloro-N-(furan-2-ylmethyl)-7-methylthieno[3,2-d]pyrimidin-4-amine]",30 to 300 nM,≤ 30 nM
"Cc1c([C@H]2OCCC[C@@H]2N)sc2c(NCc3ccccc3)nc(Cl)nc12 [Compound 63, 6-((2S,3S)-3-aminotetrahydro-2H-pyran-2-yl)-N-benzyl-2-chloro-7-methylthieno[3,2-d]pyrimidin-4-amine]",30 to 300 nM,30 to 300 nM
"Cc1c([C@@H]2OCCC[C@H]2N)sc2c(NCc3ccccc3)nc(Cl)nc12 [Compound 64, 6-((2R,3R)-3-aminotetrahydro-2H-pyran-2-yl)-N-benzyl-2-chloro-7-methylthieno[3,2-d]pyrimidin-4-amine]",> 1000 nM,> 1000 nM
"N[C@H]1CCCC[C@@H]1c1sc2c(NCc3ccccc3)nc(Cl)nc2c1Br [Compound 65, 6-[(1S,2S)-2-aminocyclohexyl]-N-benzyl-7-bromo-2-chloro-thieno[3,2-d]pyrimidin-4-amine]",≤ 30 nM,≤ 30 nM
"N[C@@H]1CCCC[C@H]1c1sc2c(NCc3ccccc3)nc(Cl)nc2c1Br [Compound 66, 6-((1R,2R)-2-aminocyclohexyl)-N-benzyl-7-bromo-2-chlorothieno[3,2-d]pyrimidin-4-amine]",> 1000 nM,> 1000 nM
"N[C@@H]1CCCC[C@H]1c1sc2c(NCc3ccco3)nc(Cl)nc2c1Br [Compound 67, 6-((1R,2R)-2-aminocyclohexyl)-7-bromo-2-chloro-N-(furan-2-ylmethyl)thieno[3,2-d]pyrimidin-4-amine]",300 to 1000 nM,300 to 1000 nM
"N[C@H]1CCCC[C@@H]1c1sc2c(NCc3ccco3)nc(Cl)nc2c1Br [Compound 68, 6-((1S,2S)-2-aminocyclohexyl)-7-bromo-2-chloro-N-(furan-2-ylmethyl)thieno[3,2-d]pyrimidin-4-amine]",≤ 30 nM,≤ 30 nM
"N[C@H]1CCCO[C@@H]1c1sc2c(NCc3ccccc3)nc(Cl)nc2c1Br [Compound 69, 6-((2S,3S)-3-aminotetrahydro-2H-pyran-2-yl)-N-benzyl-7-bromo-2-chlorothieno[3,2-d]pyrimidin-4-amine]",30 to 300 nM,≤ 30 nM
"N[C@@H]1CCCO[C@H]1c1sc2c(NCc3ccccc3)nc(Cl)nc2c1Br [Compound 70, 6-((2R,3R)-3-aminotetrahydro-2H-pyran-2-yl)-N-benzyl-7-bromo-2-chlorothieno[3,2-d]pyrimidin-4-amine]",> 1000 nM,> 1000 nM
"Cc1c([C@H]2CCCC[C@@H]2N)sc2c(NCc3cccs3)cc(Cl)nc12 [Compound 71, 2-((1S,2S)-2-aminocyclohexyl)-5-chloro-3-methyl-N-(thiophen-2-ylmethyl)thieno[3,2-b]pyridin-7-amine]",≤ 30 nM,≤ 30 nM
"N[C@@H]1CCCCC[C@@H]1c1sc2c(NCc3cccs3)cc(Cl)nc2c1Br [Compound 72, 2-((1S,2R)-2-aminocycloheptyl)-3-bromo-5-chloro-N-(thiophen-2-ylmethyl)thieno[3,2-b]pyridin-7-amine]",> 1000 nM,> 1000 nM
"N[C@H]1CCCCC[C@H]1c1sc2c(NCc3cccs3)cc(Cl)nc2c1Br [Compound 73, 2-((1R,2S)-2-aminocycloheptyl)-3-bromo-5-chloro-N-(thiophen-2-ylmethyl)thieno[3,2-b]pyridin-7-amine]",300 to 1000 nM,300 to 1000 nM
"N[C@@H]1CCCCC[C@H]1c1sc2c(NCc3cccs3)cc(Cl)nc2c1Br [Compound 74, 2-((1R,2R)-2-aminocycloheptyl)-3-bromo-5-chloro-N-(thiophen-2-ylmethyl)thieno[3,2-b]pyridin-7-amine]",> 1000 nM,> 1000 nM
"N[C@H]1CCCCC[C@@H]1c1sc2c(NCc3cccs3)cc(Cl)nc2c1Br [Compound 75, 2-((1S,2S)-2-aminocycloheptyl)-3-bromo-5-chloro-N-(thiophen-2-ylmethyl)thieno[3,2-b]pyridin-7-amine]",30 to 300 nM,30 to 300 nM
"N[C@@H]1CCCCC[C@@H]1c1sc2c(NCc3cccs3)cc(Cl)nc2c1Cl [Compound 76, 2-((1S,2R)-2-aminocycloheptyl)-3,5-dichloro-N-(thiophen-2-ylmethyl)thieno[3,2-b]pyridin-7-amine]",> 1000 nM,> 1000 nM
"N[C@H]1CCCCC[C@H]1c1sc2c(NCc3cccs3)cc(Cl)nc2c1Cl [Compound 77, 2-((1R,2S)-2-aminocycloheptyl)-3,5-dichloro-N-(thiophen-2-ylmethyl)thieno[3,2-b]pyridin-7-amine]",> 1000 nM,300 to 1000 nM
"N[C@@H]1CCCCC[C@H]1c1sc2c(NCc3cccs3)cc(Cl)nc2c1Cl [Compound 78, 2-((1R,2R)-2-aminocycloheptyl)-3,5-dichloro-N-(thiophen-2-ylmethyl)thieno[3,2-b]pyridin-7-amine]",> 1000 nM,> 1000 nM
"N[C@H]1CCCCC[C@@H]1c1sc2c(NCc3cccs3)cc(Cl)nc2c1Cl [Compound 79, 2-((1S,2S)-2-aminocycloheptyl)-3,5-dichloro-N-(thiophen-2-ylmethyl)thieno[3,2-b]pyridin-7-amine]",30 to 300 nM,30 to 300 nM
"N[C@@H]1CCCCC[C@H]1c1cc2nc(Cl)cc(NCc3cccs3)c2s1 [Compound 80, 2-((1R,2R)-2-aminocycloheptyl)-5-chloro-N-(thiophen-2-ylmethyl)thieno[3,2-b]pyridin-7-amine]",> 1000 nM,> 1000 nM
